Test [1] concerns human iPS cells. As to the kind of experiment: Refrigerated storage in adhesive state (1): proliferation on recultivation for 4 days. Type of test: cell-based. How it is done: Human iPS cells obtained in the same manner as in “1.” above were used. However, at the final stage of culturing, the cells were seeded at a slightly lower concentration (1.0E3/cm^2) than the maintenance culture of “1.” above, and the day after this seeding, culture medium was replaced by StemFit® A[…] medium containing no Y27362. Then, the medium was removed 4 days after the seeding. Subsequently, the medium was replaced with HTM1 which is for the non-freezing refrigerated storage, and the medium with the cells was left to stand for 3 or 6 days under 4° C. In other words, in a state the cells were aggregated and adhered to each other, the cells were stored in non-freezing refrigerated condition for 3 days or 6 days. Trolox was added to HTM1, which is the medium for refrigerated storage. […] A UW solution (BELZER UW (registered trademark) COLD STORAGE LIQUID) was also used as the refrigerated storage medium of the comparative example. The cells after the non-freezing refrigerated storage were lightly washed with culture medium after the refrigerated storage medium were removed. Then, StemFit® A[…] medium was added and culturing was made for 4 days. At the end of this culturing, cells were enzymatically detached (by using 0.5X TrypLE® Select), and dispersed so that number of viable cells are counted. Then, it was compared with the number of cells at the start of refrigerated storage. In addition, after taking a phase difference image at the end and start of the culturing, image processing was performed with ImageJ to extract and binarize the colony area, and the colony area was measured to evaluate the proliferative ability. The above experiment was aimed at developing a refrigerated storage method in a state iPS cells were adhered, and proliferative ability (colony forming ability) subsequent to culturing for 4 days after the non-freezing refrigerated storage for 3 or 6 days. FIGS. 7A-7B show images of colonies obtained by the […] for 4 days after 3 days of the refrigerated storage, and FIGS. 7C-7D show images of colonies obtained by recultivation for 4 days after he refrigerated storage for 6 days. Here, FIGS. 7A and 7C are phase differentiation images, and binarized images of these are shown in FIGS. 7B and 7D, respectively. […] Further, in the bar graphs of FIGS. 7F and 8, the rate of increase in the number of colonies when recultivated for 4 days after the refrigerated storage for 3 days and 6 days. In the graph, the rate for a control, which is for cell not subjected to the refrigerated storage, is taken as “1” or 100%.

Test [2] relates to mouse blastocyst stage embryos. As to the kind of experiment: Refrigerated storage of mouse embryos: escape from the zona pellucida. It counts as cell-based, mouse (ICR). To be noted: 14 µM to 140 µM; low temperature storage for 5 days and 7 days. As to the method:
On the other hand, in order to try non-freezing refrigerated storage of mouse embryos (FIGS. 10 to 11), in vitro fertilization was performed by ova and sperms from female and male mice (both ICR), and then embryos were cultured for 3.5 days (84 hours). Here, HTF (Fuji Film Wako Pure Chemical Industries, Ltd.) was used as the medium for insemination, and KSOM (Arc Resource) was used for culturing.
As described above, a blastocyst stage embryo 3.5 days after in vitro fertilization was immediately used as it was, and a refrigerated storage experiment was conducted. Specifically, for this blastocyst stage embryo, the medium was replaced with the HTM-alpha, HTM1, and HTS FRS as used in the above “11.” and the UW solution, in respective experiments. […] Both of HTM-alpha and HTM1 here are obtained by adding 5 mM Trolox and 5-fold concentration (x5; 10 mM) GlutaMAX (registered trademark) in the same manner as in “11.” above.
Next, the effect of adding adenine hydrochloride (Tokyo Kasei) was investigated in the same manner as in FIGS. 7E to 7F. That is, under the same conditions as in the experiment of FIG. 10, the rate of embryos that escaped the zona pellucida when Adenine hydrochloride (Tokyo Kasei) was added at each concentration was determined.

In test [3] the test system is human iPS cell line (253G1). As to the kind of experiment: Non-freezing refrigerated storage in single cell state at 4° C., survival rate by trypan blue. It counts as cell-based. To be noted: for effect of antioxidant/radical scavenger on ST80 (ranking): added to HTM1 at various concentrations; for 80% survival-rate maintenance days (ST80): single cell state, 4° C. The text has this:
A healthy human-derived human iPS cell line (253G1) obtained from the Center for iPS Cell Research and Application, Kyoto University was maintained and cultured under feeder-free conditions. For this culture, StemFit (registered trademark) AK02N (Ajinomoto), which is a commercially available medium for clinical research for human ES/iPS cells was used. When the cells reached 70-80% confluence on the 7th day after the start of the culture, the cells were enzymatically stripped off from a container by using 0.5X TrypLE® Select, and then dispersed and washed. Subsequently, the cells were suspended in a new StemFit® AK02N medium containing 10 µM Y27362 (Fujifilm Wako Pure Chemical Industries, Ltd.) as a ROCK inhibitor, and added with iMatrix-511 (MATRIXOME, Inc.) as a further cell culture substrate at 0.1 µg/cm^2. Then, the cells were seeded at a concentration of 1.3E3/cm^2 (1.3 ×10^3/cm^2). The day after the seeding, the medium was replaced with StemFit® AK02N medium containing no Y27362, then the medium was replaced every 3 days and subcultured or tested on day 7.
The human iPS cells obtained in “1.” above are added into the refrigerated storage liquids HTM1 and HTM2 in “2.” above to be suspended at 1E6 cells/mL (number of floating cells 1x10^6 cells/mL) in a cell state. Then, the suspensions were placed into a plastic tube and allowed to stand at 4° C. for storage. The survival rate was determined by counting the number of living cells after staining with trypan blue.
The statistical processing in the examples of the present application was performed as follows. The survival rate maintenance curves in FIGS. 1A and 2B were obtained by using “R ver 3.5.1” to fit the four-variable logistic curve. The 1way ANOVA and Bonferoni and Dunnetts tests were calculated using “Graphpad Prism 5.04”.
Antioxidants or radical scavengers were added to HTM1 at various concentrations and subjected to the non-freezing refrigerated storage test as described in “3.” above. The added antioxidants or radical scavengers are shown in FIG. 5A and are: Trolox (Trx, Wako), EGCG (Teavigo®, DSM), N-acetylcysteine (NAC, Tokyo Kasei), L-ascorbic acid (AA, WAKO)), and edaravone (3-Methyl-1-phenyl-2-pyrazoline-5-one, Sigma).

Test [4] deals with human iPS cells. As to the kind of experiment: Colony forming ability (relative colony efficiency) after refrigerated storage for 6 days and culturing for 5 days. Type of test: cell-based. As to conditions: 6 days storage, 5 days culturing. How it is done: The cell proliferation ability after non-freezing refrigerated storage was verified as follows. First, the human iPS cells obtained in the above “1.” were placed into the refrigerated storage liquid HTM1 of the above “2.” and stored in the non-freezing refrigerated state for 6 days as in the above “3.”. The cells were then suspended in StemFit® AK02N medium containing 10 µM Y27362, into which iMatrix-511 was added by 0.1 µg/cm^2. and seeded at a concentration of 1.3E3/cm^2. On 5th day of culturing, the cells were stained with fixed alkaline phosphatase, and then the number of colonies formed to a certain size or larger was measured using a colony counter. The number of colonies when cultured for 5 days without being subjected to the refrigerated storage was similarly measured and used as a control. Then, the number of colonies obtained by culturing for 5 days after the refrigerated storage was divided by the number of colonies in this control to obtain colony forming ability (Relative colony efficiency).
Next, in order to verify the proliferative ability after refrigerated storage and recultivation, cells having been stored in the refrigerated state for 6 days were seeded in the same manner as in “4.” above, and the colony forming ability on the 5th day of culturing was compared. […] This obtained value was almost the same as that of the customary conventional slow-cooling cryoprerservation method placing the cell suspension in a freezer at -80° C.

The subject of test [5] is human iPS cells. Put plainly: Relative survival rate after 6 days of refrigerated storage and 1 day of recovery culturing. It counts as cell-based. To be noted: for effectiveness in refrigerated storage (relative survival rate): 0.04 mM to 5.0 mM added to HTM-alpha without trolox and GlutaMAX, compared with trolox 2.0 mM. How it is done: The HTM-alpha (UW solution + MEM-alpha, 2: 1) described in “2.” above, which has not been added with trolox and GlutaMAX (registered trademark, GIBCO), is used in FIGS. 6A and 2A. The effect of the addition of tocopherol (vitamin E) and tocopherol acetate (vitamin E derivative) in the non-freezing refrigerated storage was investigated by the same procedure as in case of trolox addition in the above. Tocopherol and tocopherol acetate were added so as to become 0.04 mM to 5.0 mM in the same manner as the trolox addition, and refrigerated storage was performed. At this time, a sample to which trolox at 2.0 mM, which is a water-soluble vitamin E analog, was added was also tested at the same time. FIG. 6D summarizes the relative survival rates after 6 days of the storage and 1 day of recovery cultivation.
Here, the effect of adding polyvinyl alcohol (PVA) instead of hydroxyethyl starch (HES) was investigated. Here, the composition of the UW solution shown in Table 1 above, excluding hydroxyethyl starch (HES), was adopted. Thus, the other components are same with those in the HTM-alpha (UW solution + MEM-alpha, 2: 1) while polyvinyl alcohol (PVA) in the range of 0.25% to 2.5% (weight) were added in the storage liquids used here. The cell viability was evaluated in the same manner as in the case of FIG. 6D above. That is, the protective effect of polyvinyl alcohol (PVA) was examined by the same procedure as in FIGS. 6A and 2A. At this time, a sample having a hydroxyethyl starch (HES) concentration of 5% (weight) was also tested at the same time. FIG. 12A summarizes the relative survival rates after 6 days of the refrigerated storage and 1 day of recovery culturing. […] It should be noted that polyvinyl alcohol (PVA) is cheaper than hydroxyethyl starch (HES), and is considered to be safer for living tissues.
Next, in the same manner as in “13.” above, mannitol was added together with polyvinyl alcohol (PVA), and the synergistic effect was verified. […]

Setting [6] is: additive 5 mM in HTM1, listed as trolox.

For `Cl.Nc1ncnc2nc[nH]c12` [Adenine, adenine hydrochloride], the “proliferation rate at recultivation” value in the test with human iPS cells [1] (2.8 mM and 4.2 mM in HTM1 with Trolox 5 mM, storage 6 days) was “significantly increased”. For the same molecule, in the test with human iPS cells [1] (8.2 mM in HTM1 with Trolox 5 mM, storage 6 days), the “growth rate at recultivation” value is given as “decreased the growth rate”. For the same molecule, the “zona pellucida escape rate” value in test [2] is given as “relatively high zona pellucida escape rate”.
For `O=C(O[C@@H]1Cc2c(O)cc(O)cc2O[C@@H]1c1cc(O)c(O)c(O)c1)c1cc(O)c(O)c(O)c1` [EGCG], the “effect of antioxidant/radical scavenger on ST80 (ranking)” value (“effect of antioxidant/radical scavenger” below) in test [3] is “third highest effect”.
As for `CC1=NN(c2ccccc2)C(=O)C1` [Edaravone, 3-Methyl-1-phenyl-2-pyrazoline-5-one], the “effect of antioxidant/radical scavenger” value in test [3] is on record as “second highest effect”.
On to `O=C1O[C@H]([C@@H](O)CO)C(O)=C1O` [L-Ascorbic Acid, L-ascorbic acid], for which the “effect of antioxidant/radical scavenger” value in test [3] is listed as “did not show much effect”.
`CC(=O)N[C@@H](CS)C(=O)O` [N-acetylcysteine]: the “effect of antioxidant/radical scavenger” value in test [3] is listed as “third highest effect”.
Take `Cc1c(C)c2c(c(C)c1O)CCC(C)(C(=O)O)O2` (stereo not drawn) [Trolox]: in the test on human iPS cells [1] (5 mM added into HTM1, storage 3 days), the “cell proliferation rate at recultivation compared with control not refrigerated” value is recorded as “almost the same value as that in the control”. Besides, the “cell proliferation rate at recultivation relative to control not refrigerated” value with human iPS cells [1] (5 mM added into HTM1, storage 6 days) is “about 10%”. In addition, in the test on human iPS cells [4] (5.0 mM added to HTM1), the “colony forming ability as multiple of HTM1 alone” value is reported as “about twice” and the “colony forming ability relative to control not subjected to refrigerated storage” value is given as 41.2%. Besides, in the test with human iPS cells [4] (5.0 mM added to HTM1, listed as trolox), the “colony forming ability as multiple of HTM1 alone” value amounted to 2.3 times. Moreover, the “colony forming ability, dependence on concentration” value in the test on human iPS cells [4] (added to HTM1) is “increased depending on the concentration of trolox”. In addition, the “ST80 compared with HTM1 with no trolox added” value in test [3] (0.5 mM or more added to HTM1) is “significantly higher”. In test [3] (added to HTM1, concentration varied), the “ST80, dependence on addition concentration” value is recorded as “increase approximately with increasing trolox concentrations”. For the same molecule, in test [3], the “effect of antioxidant/radical scavenger” value is recorded as “most effective”. Also, in test [3] (additive 5 mM in HTM1), the “survival rate maintenance days (ST80) as multiple of HTM1 alone” value is on record as “about 4 times”, the “survival rate maintenance days (ST80) as multiple of UW solution” value worked out at 9.5 times and the “80% survival-rate maintenance days (ST80)” value is reported as no less than 20 days. In test [3] (setting [6]), the “survival rate maintenance days (ST80) as multiple of HTM1 alone” value was determined as 4.4 times and the “80% survival-rate maintenance days (ST80)” value is 20.11 days.
For `OC[C@@H](O)[C@@H](O)[C@H](O)[C@H](O)CO` [mannitol], the “viability of the cells after refrigerated storage” value in the test with human iPS cells [5] (30 mM to 90 mM together with 0.5% PVA in HTM-alpha without HES, compared with 5% HES) is recorded as “higher”.
For `CC(=O)Oc1c(C)c(C)c2c(c1C)CCC(C)(CCC[C@H](C)CCC[C@H](C)CCCC(C)C)O2` (stereo partly drawn) [tocopherol acetate], the “effectiveness in refrigerated storage (relative survival rate)” value in the test with human iPS cells [5] was “less effective in refrigerated storage than trolox”.
In the case of tocopherol, in the test with human iPS cells [5], the “effectiveness in refrigerated storage (relative survival rate)” value is “less effective in refrigerated storage than trolox”.

For the origin of these results see patent US20230189790A1, “NON-FREEZING REFRIGERATED STORAGE LIQUID FOR STEM CELLS” (BIOVERDE INC., priority 2019, published 2023).
